The supplement of paper PMC10307832

Columns and labels:
Test in all cases: relative viability (nuclei count vs DMSO), 5 days (fraction); higher = more cells survive
Axitinib = compound: CNC(=O)c1ccccc1Sc1ccc2c(/C=C/c3ccccn3)n[nH]c2c1 [Axitinib]
Summary of the method: (§1)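 Only plates meeting two conditions passed: control CV below 25% and at least one doubling. Lung cancer cell lines, kept overnight at 37 °C in 1536-well plates, were pinned with five library-drug doses (not always all listed) √10 apart on vehicle-anchored plates and grown 5 days without medium change. A one-step fix, permeabilisation and Hoechst stain preceded 4× imaging and MetaXpress nuclear counting. Viability equals treated-well nuclei divided by vehicle-well nuclei, as the median over plates.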

Pifithrin_alpha = compound: CC1=CC=C(C=C1)C(=O)CN2C3=C(CCCC3)SC2=N [Pifithrin_alpha]
Summary of the method: as §1

Bemcentinib = compound: Nc1nc(Nc2ccc3c(c2)CC[C@@H](N2CCCC2)CC3)nn1-c1cc2c(nn1)-c1ccccc1CCC2 [Bemcentinib]
Summary of the method: as §1

[1] = compound: CC1=CC=C(C=C1)C(=O)CN2C3=C(CCCC3)SC2=N [Pifithrin_alpha] + COc1cc2c(Oc3ccc(NC(=O)C4(C(=O)Nc5ccc(F)cc5)CC4)cc3F)ccnc2cc1OCCCN1CCOCC1 [Foretinib] (partner 0.25 µM)
Summary of the method: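 Lung cancer cell lines were seeded in 1536-well plates and dosed by pin tool the next day, with either a single drug or a fixed anchor-drug dose combined with five library-drug doses (not always all listed) spaced in √10 steps. Five days later, one step fixed the cells and stained their nuclei (final 0.05% Triton X-100, 1% formaldehyde, 1 ug/ml Hoechst), and nuclei were counted on 4× images. Relative viability is the nuclei count in treated wells divided by the count in vehicle wells, and each value is the median of duplicate plates.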

Cell Line	relative viability (Axitinib; 0.005 µM)	relative viability (Axitinib; 0.01581 µM)	relative viability (Axitinib; 0.05 µM)	relative viability (Axitinib; 0.1581 µM)	relative viability (Axitinib; 0.5 µM)	relative viability (Pifithrin_alpha; 1 µM)	relative viability (Pifithrin_alpha; 3.162 µM)	relative viability (Pifithrin_alpha; 10 µM)	relative viability (Pifithrin_alpha; 31.62 µM)	relative viability (Pifithrin_alpha; 100 µM)	relative viability (Bemcentinib; 0.04 µM)	relative viability (Bemcentinib; 0.1265 µM)	relative viability (Bemcentinib; 0.4 µM)	relative viability (Bemcentinib; 1.265 µM)	relative viability (Bemcentinib; 4 µM)	relative viability ([1]; first compound 1 µM)	relative viability ([1]; first compound 3.162 µM)	relative viability ([1]; first compound 10 µM)	relative viability ([1]; first compound 31.62 µM)	relative viability ([1]; first compound 100 µM)
SK-MES-1	1.03	0.998	1.01	0.976	1.06	0.893	0.927	0.901	0.726	0.815	1.03	1.09	1.07	1.11	1.11	0.763	0.817	0.857	0.588	0.604
NCI-H1648	1.03	0.984	0.61	0.882	0.632	0.791	0.852	0.869	0.625	0.691	0.85	1.06	1.07	0.724	0.694	–	–	–	–	–
PC-3 [JPC-3]	1.08	–	1.1	1.03	1.2	0.73	1.03	0.934	0.949	0.932	0.978	1.06	1.12	1.05	1.06	1.05	0.991	0.927	0.833	0.931
NCI-H1666	1.06	0.965	0.965	1	0.977	1.01	0.909	0.837	0.795	0.776	0.902	1.34	1.03	1.06	0.998	0.969	0.933	0.867	0.781	0.763
IA-LM	1.03	0.954	0.987	0.999	0.88	0.853	0.993	0.555	0.491	0.418	0.946	1.19	0.975	0.995	0.977	1.07	0.975	0.469	0.445	0.604
HCC-78	0.978	1.02	0.893	0.936	0.867	0.669	0.892	0.815	0.694	0.823	0.752	0.926	1.07	0.791	0.957	0.592	0.551	0.486	0.467	0.523
HCC-366	0.99	0.999	1.06	1	1.04	1.01	0.974	1.01	–	1.04	1.07	1.07	0.987	0.986	0.995	0.896	0.906	0.915	–	0.527
NCI-H520	0.974	0.737	1.07	0.765	0.992	1.05	0.916	0.96	0.763	1.1	0.868	1.08	0.992	1.02	1.08	0.793	1.17	0.852	0.528	0.81
NCI-H1355	0.945	1.01	1.05	0.968	0.901	0.849	0.808	0.645	0.565	0.713	0.992	1.08	1.09	0.974	1.06	0.949	0.743	0.663	0.587	0.65
SW 1573	0.982	1	1.09	0.867	1.08	1.04	1.01	1.09	0.787	0.981	0.912	1.06	1.1	0.921	0.968	1.01	0.891	0.835	0.753	0.709
COR-L 105	0.995	0.786	1.02	0.868	1.2	0.792	0.841	0.862	0.695	0.758	0.726	0.964	1.06	0.912	1.04	1.08	0.976	1.13	0.897	0.734
COR-L23	1.05	0.93	1.06	0.923	1.05	1.07	1.09	0.977	–	0.94	1.03	1.17	1.14	1.18	1.12	0.955	0.987	0.97	–	0.928
NCI-H322M	1.03	0.847	0.992	0.813	1.03	0.906	0.891	1.01	0.851	0.869	0.873	0.966	0.982	0.953	0.998	0.91	1.03	0.964	0.929	0.839
NCI-H2347	0.983	0.959	1.09	1.06	0.951	0.954	1.03	1.07	0.744	1.03	0.953	1.17	1.06	0.956	1.04	0.684	–	1.05	0.689	0.804
RERF-LC-KJ	1.07	0.991	1.01	0.984	1.04	0.873	0.935	0.858	0.81	0.795	1.07	1.04	1.11	1.07	1.06	0.886	0.829	0.792	0.813	0.786
NCI-H2228	1.09	0.943	1.05	1.05	1.03	0.99	1.03	0.97	0.93	1.05	0.8	1.13	1.05	0.96	1.22	1.04	0.867	0.758	0.711	0.793
